In patent US20220347294A1, “COMPOSITIONS AND METHODS FOR INCREASING THE EFFICACY OF IMMUNOTHERAPIES AND VACCINES” (The Regents of the University of Michigan, priority 2019, published 2022):

Tests used:
[1] = tested on: AH1-specific CD8+ T cells; experiment: Tetramer analysis of AH1-specific CD8+ T cells in PBMCs; format: in vivo, BALB/c mice
Description: The effect of these materials were next tested on systemic immune responses. The surrogate marker of tumor specific antigen, MHC-I minimal epitope of CT-26 gp70 (AH1) (H-2L^d-restricted SPSYVYHQF (SEQ ID NO.: 1)), was employed to quantitate the frequency of AH1-specific CD8^+ T cells among peripheral blood mononuclear cells (PBMCs). Mice orally gavaged with inulin and melatonin combined with α-PD-1 IgG induced 1.7-fold and 1.8-fold greater frequencies of AH1-specific CD8^+ T cells, compared with α-PD-1 treatment alone (FIGS. 1E and F).
Peripheral blood mononuclear cells (PBMCs) were collected at preset times to analyze tumor antigen-specific CD8^+ T cells in the systemic circulation. Red blood cells were lysed, and the remaining cells were blocked with anti-CD16/32 antibody for 10 min and stained with peptide-MHC tetramer, including H-2L^d-restricted SPSYVYHQF (SEQ ID NO.: 1) or H-2D^b-restricted ASMTNMELM (SEQ ID NO.: 3). Both the tetramers were provided by NIH Tetramer Core Facility. Cells were also stained anti-CD8-APC (BD Biosciences, #553035) and DAPI for flow cytometric analysis.

gut microbiota = experiment: Gut microbiome analysis by 16S rRNA sequencing of fecal pellets; format: in vivo, BALB/c mice
Protocol: FIG. 4A-H: Responses of the diversity, richness, and structure of the gut microbiota. 1.5×10^5 CT26 cells were inoculated in BALB/c mice subcutaneously and gavaged from day 7 (5 times per week). α-PD-1 (100 μg per dose) was ip injected on days 11, 15, 19 and 23. The fecal pellets were collected on day 21 for 16s RNA analysis. (A) OTU number, (B) inverse Simposon diversity and (C) nonmetric multidimensional scaling (NMDS) score plot (based on Bray-Curtis) of gut microbiota in various groups. (D) Relative abundances of the gut microbiota at family level and […] genus level. (F) The relative abundances of lactobacillus, akkermansia, roseburia and Ruminococcus_1 in various groups. (G) The relationship of between the tumor sizes and the relative abundances of lactobacillus, akkermansia, roseburia and Ruminococcus_1. (H) The heatmap of SCFAs (lactate, propionate and butyrate) levels of various groups in fecal pellets. Data represent mean±SEM. *p<0.05, **p<0.01, ****p<0.0001, analysed by one-way ANOVA (A, B, F).
Tumor-bearing mice received treatments as indicated above. […] Pooled amplicon library was then sequenced on the Illumina MiSeq platform using the 500 cycle MiSeq V2 Reagent kit (catalog no. MS-102-2003) according to the manufacturer's instructions with modifications of the primer set with custom read 1/read 2 and index primers added to the reagent cartridge. […]

CT26 cells = experiment: Therapeutic oral gavage plus α-PD-1 in the CT26 tumor model; format: in vivo, BALB/c mice
Protocol: (A) 1.5×10^5 CT26 cells were inoculated in BALB/c mice subcutaneously (sc) on day 0. Mice were gavaged from day 7 (5 times per week). On days 11, 15, 19 and 23, α-PD-1 was injected intraperitoneally (ip) at 100 μg per dose. (B) The average tumor growth curves for mice gavaged with various compounds. Data represent mean±SEM. (C) Individual tumor growth curves and (D) survival rate curves of various groups. […] All the data are from 2-3 independent experiments; n=10 (B, C, D), n=7-10 (E, F) *p<0.05, **p<0.01, analysed by two-way ANOVA (B), one-way ANOVA (E, F) or log-rank (Mantel-Cox) test.
(B) The average tumor growth curves and individual tumor growth curve for mice gavaged with inulin or inulin gel (60 mg/dosage). 1.5×10^5 CT26 cells were inoculated in BALB/c mice subcutaneously. Gavage started from day 7 (5 times per week) and 100 μg of α-PD-1 was ip injected on days 11, 15, 19, 23 and 27. (C) The survival rate curves of various groups. […] PBS was used as a control. […] Shown are the average and individual tumor growth curves for tumor-bearing mice. IgG antibody was used as a control group. Data represent mean SEM. All the data are from 2-3 independent experiments; n=10 (B, C), n=5 (D, I), n=10-15 (E), n=4-7 (G, F), *p<0.05, **p<0.01, ***p<0.001, analysed by one-way ANOVA (E, F), two-way ANOVA (B, I), or log-rank (Mantel-Cox) test (C).
Female C57BL/6 or BALB/c mice of 6-8-week old were obtained from Jackson Laboratory. BALB/c mice were inoculated with 1.5×10^5 CT26 cells per mouse, while C57BL/6 mice were inoculated with 1.2×10^6 MC38 cells per mouse on the right flank by subcutaneous injection on day 0. Tumor-bearing mice were randomly assigned to different groups on day 5. For prophylactic antitumor study, mice were received oral gavage with melatonin (100 mg/Kg bodyweight/dosage), EGCG (100 mg/Kg bodyweight/dosage), fucoidan (200 mg/Kg bodyweight/dosage), oligofructose (120 mg/dosage), or inulin (120 mg/dosage) three times for one week prior to tumor inoculation. After tumor inoculation, mice received oral gavage three times in the first week, followed by five times per week. Mice were injected i.p. with α-PD-1 antibody (100 μg/dosage) on days 10, 14, 18 and 22 post tumor inoculation. For the therapeutic therapy, mice were inoculated with tumor cells on day 0 as indicated above and treated with the indicated samples by oral gavage starting day 7 post tumor inoculation.

[2] = SCFAs measurement in fecal pellets; format: in vivo, mice; conditions: oral gavage of inulin
Protocol: Fresh fecal pellets of mice were collected and weighted on day 20 post tumor inoculation and treatments. Fecal pellets were homogenized in DI water and centrifuged at 3000×g for 5 min. The pH of the supernatant was detected by pH meter. For SCFAs measurement, SCFAs were extracted from the fecal pellets using Milli-Q water. The solution was centrifuged for 5 min at 10000×g (4° C.) to pellet bacteria and other solids. The supernatant was collected, and SCFAs were measured via ion chromatography in University of Michigan Biological Station. The concentration of SCFAs was determined using an external standard method.

Substance: inulin
- frequencies of AH1-specific CD8+ T cells among PBMCs, fold greater than α-PD-1 treatment alone ([1]; prophylactic oral gavage combined with α-PD-1 IgG, peripheral blood day 22): 1.7 fold
- AH1-specific CD8+ T cells among PBMCs ([1]; therapeutic setting, day 18 and 24, combined with α-PD-1): significantly higher
- abundance of Roseburia in the gut (gut microbiota; oral gavage with α-PD-1): increased
- relative abundance of Akkermansia, Lactobacillus, Ruminococcus, and Butyricicoccus (gut microbiota; oral inulin followed by α-PD-1, compared with α-PD-1 alone or PBS group): increased
- combination efficacy with α-PD-1 against tumor growth after reducing the dosage by half (CT26 cells; 60 mg for inulin, 50 mg/Kg for melatonin): did not compromise
- animal survival (CT26 cells; therapeutic oral gavage from day 7, combined with α-PD-1 IgG): extended animal survival
- anti-tumor efficacy (CT26 cells; therapeutic oral gavage from day 7, combined with α-PD-1 IgG, compared among candidate agents): strongest anti-tumor efficacy
- concentration of lactate, propionate and butyrate in fecal pellets [2]: increased
